Test results reported in patent US20200131669A1, “CYCLIC PEPTIDE COMPOUND HAVING HIGH MEMBRANE PERMEABILITY, AND LIBRARY CONTAINING SAME” (Chugai Seiyaku Kabushiki Kaisha, priority 2017, published 2020).
Where two headings read alike, the source gives them in different places. Positions of bridges follow the written chain, without caps; N, C: chain ends. Non-standard residues stand in square brackets, D forms with d. Residues, ends and D or L forms follow the SMILES beside them. ξ: configuration not given here. *: point of attachment. Phe(4-CF3) = N[C@@H](Cc1ccc(C(F)(F)F)cc1)C(=O)O; hhPhe = N[C@@H](CCCc1ccccc1)C(=O)O; Hyp = O=C(O)[C@@H]1C[C@@H](O)CN1; NMeF = CN[C@@H](Cc1ccccc1)C(=O)O; NMeI = CC[C@H](C)[C@H](NC)C(=O)O; NMeD = CN[C@@H](CC(=O)O)C(=O)O; NMeL = CN[C@@H](CC(C)C)C(=O)O; dNMeL = CN[C@H](CC(C)C)C(=O)O; NMeNva = CCC[C@H](NC)C(=O)O; NMeV = CN[C@H](C(=O)O)C(C)C; Pip = O=C(O)[C@@H]1CCCCN1; NMeA = CN[C@@H](C)C(=O)O; Piperidide = C1CCN(*)CC1; dAbu = CC[C@@H](N)C(=O)O; dNMeA = CN[C@H](C)C(=O)O; Bn = c1ccc(C*)cc1; ξS = NC(CO)C(=O)O; Sar = CNCC(=O)O; tBu = CC(C)(C)*

Test: Caco-2 membrane permeability, improved method as used in the following Examples (96-well, 20 to 24 h preincubation)
Assay type: in vitro ADME
Conditions: human
Outline: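 Caco-2 monolayers were grown three weeks and preincubated 20–24 h at 37 °C with compound in DMEM+FaSSIF (1% DMSO) apically. The assay then used compound in FaSSIF/HBSS (1% DMSO, pH 6.0) apically and HBSS with 4% BSA (pH 7.4) basally. Basal samples were taken at 180 min for LC/MS, and Papp (cm/sec) was calculated.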

SMILES | Papp A→B at 180 min (Caco-2, Caco-2) | Papp A→B at 180 min (Papp, Caco-2 membrane permeability, improved method, read-out: Caco-2)
CC[C@H](C)[C@@H]1NC(=O)[C@H](Cc2ccccc2)N(C)C(=O)CN(C)C(=O)C[C@@H](C(=O)N2CCCCC2)NC(=O)[C@H](C)N(C)C(=O)[C@H](CCCc2ccccc2)NC(=O)[C@H](CC(C)C)N(C)C(=O)[C@H](Cc2ccccc2)N(C)C(=O)CN(C)C(=O)[C@H]([C@@H](C)O)NC(=O)[C@H](CC(C)C)N(C)C1=O [pd367] ([Sar][NMeF]I[NMeL]T[Sar][NMeF][NMeL][hhPhe][NMeA]D-Piperidide; lactam N-11) | 1.5 ×10⁻⁶ cm/s | –
CC(C)C[C@@H]1NC(=O)[C@H](C)N(C)C(=O)C[C@@H](C(=O)N2CCCCC2)NC(=O)[C@H](CC(C)C)N(C)C(=O)CN(C)C(=O)[C@H]([C@@H](C)O)NC(=O)[C@H](C)N(C)C(=O)[C@H](Cc2ccccc2)N(C)C(=O)[C@H](COCc2ccccc2)NC(=O)[C@H](Cc2ccccc2)N(C)C(=O)[C@H](CC(C)C)N(C)C1=O [pd368] ([NMeA]L[NMeL][NMeF]S(Bn)[NMeF][NMeA]T[Sar][NMeL]D-Piperidide; lactam N-11) | – | 2 ×10⁻⁶ cm/s
CC(C)C[C@H]1C(=O)N[C@@H]([C@@H](C)O)C(=O)N(C)CC(=O)N(C)[C@@H](Cc2ccccc2)C(=O)N(C)[C@@H](CC(C)C)C(=O)N[C@@H](COC(C)(C)C)C(=O)N(C)[C@@H](CC(C)C)C(=O)N[C@H](C(=O)N2CCCCC2)CC(=O)N(C)CC(=O)N(C)[C@@H](Cc2ccccc2)C(=O)N[C@@H](COCc2ccccc2)C(=O)N1C [pd369] ([Sar][NMeF]S(Bn)[NMeL]T[Sar][NMeF][NMeL]S(tBu)[NMeL]D-Piperidide; lactam N-11) | 3 ×10⁻⁶ cm/s | –
CC[C@H](C)[C@@H]1NC(=O)[C@H](Cc2ccccc2)N(C)C(=O)CN(C)C(=O)C[C@@H](C(=O)N2CCCCC2)NC(=O)[C@H]([C@@H](C)CC)N(C)C(=O)C(COCc2ccccc2)NC(=O)[C@H](CC(C)C)N(C)C(=O)[C@H](Cc2ccccc2)N(C)C(=O)CN(C)C(=O)[C@H]([C@@H](C)O)NC(=O)[C@H](CC(C)C)N(C)C1=O (stereo partly drawn) [pd370] ([Sar][NMeF]I[NMeL]T[Sar][NMeF][NMeL][ξS](Bn)[NMeI]D-Piperidide; lactam N-11) | 2.5 ×10⁻⁶ cm/s | –
CCO[C@@H]1C[C@H]2C(=O)N(C)[C@@H](CC(C)C)C(=O)N[C@@H]([C@@H](C)CC)C(=O)N(C)[C@@H](CC(C)C)C(=O)N[C@@H](CC(C)C)C(=O)N[C@H](C(=O)N3CCCCC3)CC(=O)N(C)[C@H](C)C(=O)N(C)[C@@H](CC(C)C)C(=O)N[C@@H](CC(C)C)C(=O)N(C)[C@@H](CC(C)C)C(=O)N[C@@H]([C@@H](C)O)C(=O)N2C1 [pd371] ([dNMeA][NMeL]L[NMeL]T[Hyp](Et)[NMeL]I[NMeL]LD-Piperidide; lactam N-11) | 3.4 ×10⁻⁶ cm/s | –
CCO[C@@H]1C[C@H]2C(=O)N(C)[C@@H](CC(C)C)C(=O)N[C@@H]([C@@H](C)O)C(=O)N(C)[C@@H](Cc3ccccc3)C(=O)N[C@@H](Cc3ccccc3)C(=O)N(C)[C@@H](CC(C)C)C(=O)N[C@H](C(=O)N3CCCCC3)CC(=O)N[C@H](CC(C)C)C(=O)N3CCC[C@H]3C(=O)N[C@@H](COC(C)(C)C)C(=O)N(C)[C@@H](CC(C)C)C(=O)N2C1 [pd372] ([dL]PS(tBu)[NMeL][Hyp](Et)[NMeL]T[NMeF]F[NMeL]D-Piperidide; lactam N-11) | 1.4 ×10⁻⁶ cm/s | –
CCO[C@@H]1C[C@H]2C(=O)N(C)[C@@H](CC(C)C)C(=O)N[C@@H]([C@@H](C)O)C(=O)N(C)[C@@H](Cc3ccccc3)C(=O)N[C@@H](Cc3ccccc3)C(=O)N(C)[C@@H](CC(C)C)C(=O)N(C)[C@H](C(=O)N3CCCCC3)CC(=O)N[C@@H](C)C(=O)N(C)[C@@H](C(C)C)C(=O)N[C@@H](COC(C)(C)C)C(=O)N(C)[C@@H](CC(C)C)C(=O)N2C1 [pd373] (A[NMeV]S(tBu)[NMeL][Hyp](Et)[NMeL]T[NMeF]F[NMeL][NMeD]-Piperidide; lactam N-11) | 2 ×10⁻⁶ cm/s | –
CCO[C@@H]1C[C@H]2C(=O)N[C@H](C(=O)N3CCCCC3)CC(=O)N[C@@H](C(C)C)C(=O)NCC(=O)N(C)[C@@H](CC(C)C)C(=O)N(C)[C@@H](CC(C)C)C(=O)N(C)[C@@H](CC(C)C)C(=O)N(C)[C@@H](Cc3ccccc3)C(=O)N[C@@H]([C@@H](C)O)C(=O)N(C)[C@@H](Cc3ccccc3)C(=O)N(C)[C@@H](CC(C)C)C(=O)N2C1 [pd374] (VG[NMeL][NMeL][NMeL][NMeF]T[NMeF][NMeL][Hyp](Et)D-Piperidide; lactam N-11) | 2.5 ×10⁻⁶ cm/s | –
CCO[C@@H]1C[C@H]2C(=O)N[C@@H](Cc3ccccc3)C(=O)N(C)[C@@H](CC(C)C)C(=O)N[C@H](C(=O)N3CCCCC3)CC(=O)N[C@H](CC)C(=O)N(C)[C@@H](CC(C)C)C(=O)N[C@@H](COC(C)(C)C)C(=O)N(C)[C@@H](CC(C)C)C(=O)N[C@@H](CC(C)C)C(=O)N(C)[C@@H](CC(C)C)C(=O)N[C@@H]([C@@H](C)O)C(=O)N2C1 [pd375] ([dAbu][NMeL]S(tBu)[NMeL]L[NMeL]T[Hyp](Et)F[NMeL]D-Piperidide; lactam N-11) | 2.9 ×10⁻⁶ cm/s | –
CCO[C@@H]1C[C@H]2C(=O)N(C)[C@@H](C(C)C)C(=O)N[C@@H]([C@@H](C)O)C(=O)N(C)[C@@H](Cc3ccccc3)C(=O)N[C@@H](Cc3ccccc3)C(=O)N(C)[C@@H](CC(C)C)C(=O)N(C)[C@H](C(=O)N3CCCCC3)CC(=O)N3CCC[C@H]3C(=O)N(C)[C@@H](C(C)C)C(=O)N[C@@H](COC(C)(C)C)C(=O)N(C)[C@@H](CC(C)C)C(=O)N2C1 [pd376] (P[NMeV]S(tBu)[NMeL][Hyp](Et)[NMeV]T[NMeF]F[NMeL][NMeD]-Piperidide; lactam N-11) | 2.4 ×10⁻⁶ cm/s | –
CCO[C@@H]1C[C@H]2C(=O)N(C)[C@@H](CC(C)C)C(=O)N[C@@H]([C@@H](C)O)C(=O)N(C)[C@@H](CC(C)C)C(=O)N(C)[C@@H](C(C)C)C(=O)N[C@@H](Cc3ccc(C(F)(F)F)cc3)C(=O)N3CCCC[C@H]3C(=O)N[C@@H](CC(C)C)C(=O)N[C@H](C(=O)N3CCCCC3)CC(=O)N(C)[C@H](C)C(=O)N(C)[C@@H](CC(C)C)C(=O)N2C1 [pd377] ([dNMeA][NMeL][Hyp](Et)[NMeL]T[NMeL][NMeV][Phe(4-CF3)][Pip]LD-Piperidide; lactam N-11) | 1.4 ×10⁻⁶ cm/s | –
CCO[C@@H]1C[C@H]2C(=O)N[C@@H](COC(C)(C)C)C(=O)N(C)[C@@H](CC(C)C)C(=O)N(C)[C@@H](CC(C)C)C(=O)N3CCC[C@H]3C(=O)N[C@@H]([C@@H](C)O)C(=O)N(C)[C@@H](Cc3ccccc3)C(=O)N[C@@H](Cc3ccccc3)C(=O)N(C)[C@@H](CC(C)C)C(=O)N[C@H](C(=O)N3CCCCC3)CC(=O)N[C@H](CC(C)C)C(=O)N2C1 [pd378] ([dL][Hyp](Et)S(tBu)[NMeL][NMeL]PT[NMeF]F[NMeL]D-Piperidide; lactam N-11) | 1.2 ×10⁻⁶ cm/s | –
CCC[C@H]1C(=O)N[C@@H](COC(C)(C)C)C(=O)N(C)[C@@H](CC(C)C)C(=O)N(C)[C@@H](CC(C)C)C(=O)N[C@@H](CC(C)C)C(=O)N[C@@H]([C@@H](C)O)C(=O)N2C[C@H](OCC)C[C@H]2C(=O)N[C@@H](Cc2ccccc2)C(=O)N(C)[C@@H](CC(C)C)C(=O)N[C@H](C(=O)N2CCCCC2)CC(=O)N[C@H](C(C)C)C(=O)N1C [pd380] ([dV][NMeNva]S(tBu)[NMeL][NMeL]LT[Hyp](Et)F[NMeL]D-Piperidide; lactam N-11) | 3.8 ×10⁻⁶ cm/s | –
CCC[C@H]1C(=O)N[C@@H](CC(C)C)C(=O)N(C)[C@@H](CC(C)C)C(=O)N[C@@H]([C@@H](C)O)C(=O)N2C[C@H](OCC)C[C@H]2C(=O)N(C)[C@@H](CC(C)C)C(=O)N[C@@H]([C@@H](C)CC)C(=O)N(C)[C@@H](CC(C)C)C(=O)N2CCC[C@H]2C(=O)N[C@H](C(=O)N2CCCCC2)CC(=O)N(C)[C@H](CC(C)C)C(=O)N1C [pd381] ([dNMeL][NMeNva]L[NMeL]T[Hyp](Et)[NMeL]I[NMeL]PD-Piperidide; lactam N-11) | 5.6 ×10⁻⁶ cm/s | –
CCC[C@H]1C(=O)N[C@@H](CC(C)C)C(=O)N(C)[C@@H](CC(C)C)C(=O)N[C@@H]([C@@H](C)O)C(=O)N2CCC[C@H]2C(=O)N(C)[C@@H](CC(C)C)C(=O)N[C@@H]([C@@H](C)CC)C(=O)N(C)[C@@H](CC(C)C)C(=O)N2C[C@H](OCC)C[C@H]2C(=O)N[C@H](C(=O)N2CCCCC2)CC(=O)N(C)[C@H](CC(C)C)C(=O)N1C [pd382] ([dNMeL][NMeNva]L[NMeL]TP[NMeL]I[NMeL][Hyp](Et)D-Piperidide; lactam N-11) | 4.8 ×10⁻⁶ cm/s | –
CCO[C@@H]1C[C@H]2C(=O)N3CCCC[C@H]3C(=O)N[C@@H](COC(C)(C)C)C(=O)N(C)[C@@H](CC(C)C)C(=O)N[C@@H]([C@@H](C)O)C(=O)N(C)[C@@H](CC(C)C)C(=O)N(C)[C@@H](CC(C)C)C(=O)N(C)[C@@H](CC(C)C)C(=O)N[C@H](C(=O)N3CCCCC3)CC(=O)N[C@H](C(C)C)C(=O)N(C)[C@@H]([C@@H](C)CC)C(=O)N2C1 [pd383] ([dV][NMeI][Hyp](Et)[Pip]S(tBu)[NMeL]T[NMeL][NMeL][NMeL]D-Piperidide; lactam N-11) | 2.8 ×10⁻⁶ cm/s | –
CCO[C@@H]1C[C@H]2C(=O)N(C)[C@@H](CC(C)C)C(=O)N[C@@H](COC(C)(C)C)C(=O)N3CCC[C@H]3C(=O)N[C@@H]([C@@H](C)O)C(=O)N(C)[C@@H](CC(C)C)C(=O)N(C)[C@@H](CC(C)C)C(=O)N(C)[C@@H](CC(C)C)C(=O)N[C@H](C(=O)N3CCCCC3)CC(=O)N[C@H](CC(C)C)C(=O)N(C)[C@@H]([C@@H](C)CC)C(=O)N2C1 [pd384] ([dL][NMeI][Hyp](Et)[NMeL]S(tBu)PT[NMeL][NMeL][NMeL]D-Piperidide; lactam N-11) | 3.3 ×10⁻⁶ cm/s | –
